Measured values: patent publication US11446287B2, “Compounds and methods for EP300 or CBP modulation and indications therefor” (Opna Immuno-Oncology SA, priority 2019, dated 2022)

Target: T1, Recombinant human EP300 containing the bromodomain (EP300-BD (1040-1161)) (Homo sapiens, UniProt Q09472)
T1 construct: Recombinant human EP300 bromodomain (EP300-BD (1040-1161)); made in house; host or cells: E. coli BL21-CodonPlus (DE3), modified pET vector
T1 sequence (Q09472 1040-1161): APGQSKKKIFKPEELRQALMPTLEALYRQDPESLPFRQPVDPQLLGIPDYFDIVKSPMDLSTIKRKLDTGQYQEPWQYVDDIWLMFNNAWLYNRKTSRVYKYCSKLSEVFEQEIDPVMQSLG
Experiment: EP300 Alphascreen binding assay
How it was run: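 Displacement of a biotinylated acetyl-K56 histone H3 peptide from the N-His bromodomain construct (1040-1161) measured by AlphaScreen proximity, beads at 7.5 μg/ml final, read 60 min after addition. Protein, peptide and compound first incubated 1 h at room temperature, pH 7.5 HEPES buffer; IC50 by four-parameter logistic fit.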

With CCOc1cc(C(=O)O)cc(OCC)c1-n1cc(-c2cnn(C3CC3)c2)c2ncc(-c3c(C)noc3C)cc21 [P-0265, 4-(3-(1-cyclopropyl-1H-pyrazol-4-yl)-6-(3,5-dimethylisoxazol-4-yl)-1H-pyrrolo[3,2-b]pyridin-1-yl)-3,5-diethoxybenzoic acid] as the compound, how does the IC50 read?
The IC50 was 0.1 to 1000 nM.

For CCOc1cc(C(=O)O)cc(OCC)c1-n1cc(-c2cnn(CCC#N)c2)c2ncc(-c3c(C)noc3C)cc21 [P-0266, 4-(3-(1-(2-cyanoethyl)-1H-pyrazol-4-yl)-6-(3,5-dimethylisoxazol-4-yl)-1H-pyrrolo[3,2-b]pyridin-1-yl)-3,5-diethoxybenzoic acid], which IC50 is on record?
Its IC50 is 0.1 to 1000 nM.

With CCOc1cc(C(=O)O)cc(OCC)c1-n1cc(-c2cnn(CC(=O)N(C)C)c2)c2ncc(-c3c(C)noc3C)cc21 [P-0267, 4-(3-(1-(2-(dimethylamino)-2-oxoethyl)-1H-pyrazol-4-yl)-6-(3,5-dimethylisoxazol-4-yl)-1H-pyrrolo[3,2-b]pyridin-1-yl)-3,5-diethoxybenzoic acid] as the compound, how does the IC50 read?
Its IC50 is 0.1 to 1000 nM.

Cc1noc(C)c1-c1cnc2c(c1)c(-c1cc(C(=O)O)ccc1OC(F)(F)F)cn2-c1ccc(F)cc1F [P-0268, 3-(1-(2,4-difluorophenyl)-5-(3,5-dimethylisoxazol-4-yl)-1H-pyrrolo[2,3-b]pyridin-3-yl)-4-(trifluoromethoxy)benzoic acid] was tested. Which IC50 did it give?
The IC50 was 0.1 to 1000 nM.

Cc1noc(C)c1-c1cnc2c(-c3ccc(F)cc3F)cn(-c3c(OC(C)C)cc(C(=O)O)cc3OC(C)C)c2c1 [P-0269, 4-(3-(2,4-difluorophenyl)-6-(3,5-dimethylisoxazol-4-yl)-1H-pyrrolo[3,2-b]pyridin-1-yl)-3,5-diisopropoxybenzoic acid] was tested. Which IC50 did it give?
Its IC50 is 0.1 to 1000 nM.

How did the IC50 turn out when CCOc1cc(C(=O)O)cc(OCC)c1-n1cc(CC2CCC2)c2ncc(-n3c(C)nnc3C)cc21 [P-0270, 4-(3-(cyclobutylmethyl)-6-(3,5-dimethyl-4H-1,2,4-triazol-4-yl)-1H-pyrrolo[3,2-b]pyridin-1-yl)-3,5-diethoxybenzoic acid] was run?
Its IC50 is 1000 to 8000 nM.

For CCOc1cc(C(=O)O)cc(OCC)c1-n1cc(C2CCC(F)(F)CC2)c2ncc(-c3c(C)noc3C)cc21 [P-0271, 4-(3-(4,4-difluorocyclohexyl)-6-(3,5-dimethylisoxazol-4-yl)-1H-pyrrolo[3,2-b]pyridin-1-yl)-3,5-diethoxybenzoic acid], which IC50 is on record?
The IC50 was 0.1 to 1000 nM.

With Cc1noc(C)c1-c1cnc2c(c1)c(-c1cnn(CC(=O)O)c1)cn2-c1ncccc1C#CC1CC1 [P-0272, 2-(4-(1-(3-(cyclopropylethynyl)pyridin-2-yl)-5-(3,5-dimethylisoxazol-4-yl)-1H-pyrrolo[2,3-b]pyridin-3-yl)-1H-pyrazol-1-yl)acetic acid] as the compound, how does the IC50 read?
Its IC50 is 0.1 to 1000 nM.

Which IC50 does the source give for Cc1noc(C)c1-c1cnc2c(c1)c(-c1ccc(C(=O)O)cc1OC(F)F)cn2-c1ccccc1 [P-0273, 3-(difluoromethoxy)-4-(5-(3,5-dimethylisoxazol-4-yl)-1-phenyl-1H-pyrrolo[2,3-b]pyridin-3-yl)benzoic acid] here?
Its IC50 is 0.1 to 1000 nM.

Cc1noc(C)c1-c1cnc2c(-c3ccccc3)cn(-c3cc(C(=O)O)ccc3OC(F)(F)F)c2c1 [P-0274, 3-(6-(3,5-dimethylisoxazol-4-yl)-3-phenyl-1H-pyrrolo[3,2-b]pyridin-1-yl)-4-(trifluoromethoxy)benzoic acid] was tested. Which IC50 did it give?
Its IC50 is 0.1 to 1000 nM.

Cc1noc(C)c1-c1cnc2c(c1)c(-c1ccc(C(=O)O)cc1OC(C)C)cn2-c1ccccc1 [P-0275, 4-(5-(3,5-dimethylisoxazol-4-yl)-1-phenyl-1H-pyrrolo[2,3-b]pyridin-3-yl)-3-isopropoxybenzoic acid] was tested. Which IC50 did it give?
The IC50 was 0.1 to 1000 nM.

Cc1noc(C)c1-c1cnc2c(c1)c(-c1ccc(C(=O)O)cc1OC1CCC1)cn2-c1ccccc1 [P-0276, 3-cyclobutoxy-4-(5-(3,5-dimethylisoxazol-4-yl)-1-phenyl-1H-pyrrolo[2,3-b]pyridin-3-yl)benzoic acid] was tested. Which IC50 did it give?
Its IC50 is 0.1 to 1000 nM.

With Cc1noc(C)c1-c1cnc2c(c1)c(-c1ccc(C(=O)O)cc1OCC(F)F)cn2-c1ccccc1 [P-0277, 3-(2,2-difluoroethoxy)-4-(5-(3,5-dimethylisoxazol-4-yl)-1-phenyl-1H-pyrrolo[2,3-b]pyridin-3-yl)benzoic acid] as the compound, how does the IC50 read?
Its IC50 is 0.1 to 1000 nM.

How did the IC50 turn out when Cc1noc(C)c1-c1cnc2c(c1)c(-c1ccc(C(=O)O)cc1OCC(F)(F)F)cn2-c1ccccc1 [P-0278, 4-(5-(3,5-dimethylisoxazol-4-yl)-1-phenyl-1H-pyrrolo[2,3-b]pyridin-3-yl)-3-(2,2,2-trifluoroethoxy)benzoic acid] was run?
The IC50 was 0.1 to 1000 nM.

For Cc1noc(C)c1-c1cnc2c(c1)c(-c1ccc(C(=O)O)cc1OC(F)(F)F)cn2-c1ccc(F)cc1 [P-0279, 4-(5-(3,5-dimethylisoxazol-4-yl)-1-(4-fluorophenyl)-1H-pyrrolo[2,3-b]pyridin-3-yl)-3-(trifluoromethoxy)benzoic acid], which IC50 is on record?
Its IC50 is 0.1 to 1000 nM.

Cc1noc(C)c1-c1cnc2c(c1)c(-c1cnn(CC(=O)O)c1)cn2C(C1CC1)C1CC1 [P-0280, 2-(4-(1-(dicyclopropylmethyl)-5-(3,5-dimethylisoxazol-4-yl)-1H-pyrrolo[2,3-b]pyridin-3-yl)-1H-pyrazol-1-yl)acetic acid] was tested. Which IC50 did it give?
The IC50 was 0.1 to 1000 nM.

Which IC50 does the source give for Cc1noc(C)c1-c1cnc2c(c1)c(-c1ccc(C(=O)O)cc1OC(F)(F)F)cn2-c1cnc(N2CCC2)nc1 [P-0281, 4-(1-(2-(azetidin-1-yl)pyrimidin-5-yl)-5-(3,5-dimethylisoxazol-4-yl)-1H-pyrrolo[2,3-b]pyridin-3-yl)-3-(trifluoromethoxy)benzoic acid] here?
The IC50 was 0.1 to 1000 nM.

With Cc1noc(C)c1-c1cnc2c(c1)c(-c1ccc(C(=O)O)cc1OC(F)(F)F)cn2-c1ccc(S(C)(=O)=O)cc1 [P-0282, 4-(5-(3,5-dimethylisoxazol-4-yl)-1-(4-(methylsulfonyl)phenyl)-1H-pyrrolo[2,3-b]pyridin-3-yl)-3-(trifluoromethoxy)benzoic acid] as the compound, how does the IC50 read?
Its IC50 is 0.1 to 1000 nM.

Which IC50 does the source give for Cc1noc(C)c1-c1cnc2c(c1)c(-c1c(Cl)cc(C(=O)O)cc1OC(C)C)cn2C(C1CC1)C1CC1 [P-0283, 3-chloro-4-(1-(dicyclopropylmethyl)-5-(3,5-dimethylisoxazol-4-yl)-1H-pyrrolo[2,3-b]pyridin-3-yl)-5-isopropoxybenzoic acid] here?
The IC50 was 0.1 to 1000 nM.

How did the IC50 turn out when Cc1noc(C)c1-c1cnc2c(c1)c(-c1cc(C(=O)O)ccc1OC(F)(F)F)cn2C(C1CC1)C1CC1 [P-0284, 3-(1-(dicyclopropylmethyl)-5-(3,5-dimethylisoxazol-4-yl)-1H-pyrrolo[2,3-b]pyridin-3-yl)-4-(trifluoromethoxy)benzoic acid] was run?
Its IC50 is 0.1 to 1000 nM.

Which IC50 does the source give for Cc1noc(C)c1-c1cnc2c(c1)c(-c1ccc(C(=O)O)cc1OC(F)(F)F)cn2[C@H]1CCOC1 [P-0285, (S)-4-(5-(3,5-dimethylisoxazol-4-yl)-1-(tetrahydrofuran-3-yl)-1H-pyrrolo[2,3-b]pyridin-3-yl)-3-(trifluoromethoxy)benzoic acid] here?
Its IC50 is 0.1 to 1000 nM.

Cc1noc(C)c1-c1cnc2c(c1)c(-c1ccc(C(=O)O)cc1OC(F)(F)F)cn2[C@@H]1CCOC1 [P-0286, (R)-4-(5-(3,5-dimethylisoxazol-4-yl)-1-(tetrahydrofuran-3-yl)-1H-pyrrolo[2,3-b]pyridin-3-yl)-3-(trifluoromethoxy)benzoic acid] was tested. Which IC50 did it give?
The IC50 was 0.1 to 1000 nM.

Which IC50 does the source give for CCn1cc(-n2cc(-c3ccc(C(=O)O)cc3OC(F)(F)F)c3cc(-c4c(C)noc4C)cnc32)c(C)n1 [P-0287, 4-(5-(3,5-dimethylisoxazol-4-yl)-1-(1-ethyl-3-methyl-1H-pyrazol-4-yl)-1H-pyrrolo[2,3-b]pyridin-3-yl)-3-(trifluoromethoxy)benzoic acid] here?
The IC50 was 0.1 to 1000 nM.
